# From article PMC4601023, “Novel anticancer agent, SQAP, binds to focal adhesion kinase and modulates its activity” (Scientific Reports, 2015)
# Columns and labels:
# Assay type in all cases: cell-based, human
# [1] = system: paxillin phosphorylation at Y118 in A549; experiment: Paxillin phosphorylation in A549, Western blotting; details: A549, 21 h treatment, 10 µM
# Method: (§1) Fibronectin is a glycoprotein located in the extracellular matrix that binds to integrins. […] A549 lung cancer cells have been used before for studying cell migration because of their metastatic model potential. A549 cells are also one of the tumor cell lines sensitive to SQMG[9]. Therefore, we studied the phosphorylation of FAK in A549 cells (Fig. 5C,D). SQAP could inhibit the phosphorylation of FAK at Y397 and Y925 after 1 h treatment in a dose dependent manner. […] We also examined paxillin and Akt phosphorylation in A549 as downstream targets of FAK. […] We hypothesize that SQAP diminish on Akt phosphorylation being more readily in A549 cancer cells than in HUVEC endothelial cells might be due to a higher Akt basal activity on cancer cells.
# (§2) Cells were harvested and solubilized in RIPA buffer (20 mM Tris-HCl, pH 7.5, 1% Sodium deoxycholate, 150 mM NaCl, 5 mM EDTA, 1% Triton X-100, 0.1% SDS, 0.1%, 1 mM PMSF, 1 mM vanadate and 1 μg/mL leupeptin). Protein quantification was determined using the DC protein assay kit (Bio-Rad, Hercules, CA, USA). A total of 15 μg of each protein sample were separated by SDS–PAGE gels and blotted onto polyvinylidene difluoride membranes (Merck, Kenilworth, NJ, US). […]
# [2] = system: VEGF mRNA expression in A549 cells; experiment: VEGF mRNA expression, quantitative real-time RT-PCR, A549; details: A549, 6 h, increased concentration of SQAP
# Method: Figure 5 Effect of SQAP on FAK phosphorylation. The level of FAK phosphorylated at Y397 and Y925 was evaluated by Western blotting. (A) HUVEC cells were serum-depleted for 20 h before treatment with SQAP or vehicle for 30 min followed by treatment with or without VEGF (50 ng/mL) for 30 min. (B) HUVEC cells were cultured as stated in section A and then treated with SQAP, SQMG or SQP. (C) A549 cells were serum-deprived for 48 h before pretreatment with SQAP or vehicle followed by treatment with or without fibronectin (10 μg/mL) for 30 min. (D) A549 cells were cultured as stated in section C and then treated with SQAP, SQMG or SQP. (E–F) HUVEC and A549 cells were treated with SQAP for 6 h before adding an RNA stabilization reagent and prepared for Quantitative real-time RT-PCR.
# Total RNA was prepared using an RNeasy Mini Kit (QIAGEN Inc., Hilden, Germany) according to the manufacturer’s instructions and then reverse-transcribed to cDNA with Transcriptor First Strand cDNA Synthesis Kit (Roche Applied Science, Mnnheim, Germany). Measurement of gene expression by quantitative analysis was performed using the LightCycler system (Roche Applied Science). Quantitative real-time RT-PCR analysis of β-actin, TSP-1 and VEGF-A expression were performed using the LightCycler FastStart DNA MasterPLUS SYBR Green I system (Roche Applied Science). […]
# [3] = system: Akt phosphorylation at S473 in A549; experiment: Akt phosphorylation in A549, Western blotting; details: A549, fibronectin, 1 h treatment
# Method: as §1, §2
smiles,measurement,setting,value
"CCCCCCCCCCCCCCCCCC(=O)OCCCO[C@H]1O[C@H](CS(=O)(=O)O)[C@@H](O)[C@H](O)[C@H]1O [SQAP, sulfoquynovosylacylpropanediol]",paxillin phosphorylation at Y118,[1],inhibition of paxillin phosphorylation at Y118 took 21 h treatment
same,"VEGF production level (mRNA, RT-PCR)",[2],mild production decrease
same,Akt phosphorylation at S473,[3],clearly downregulated
